The values that follow come from PMC8070447, “Facile Synthesis and In Vitro Activity of N-Substituted 1,2-Benzisothiazol-3(2H)-ones against Dengue Virus NS2BNS3 Protease” (Pathogens, 2021).

Data set [1] addresses recombinant DENV2 NS2BNS3 protease (Dengue virus type 2, UniProt P29990). The data set can be described thus: DENV2 NS2BNS3 protease inhibition assay (fluorogenic Bz-Nle-Lys-Arg-Arg-AMC substrate). The format is biochemical. The following applies: for inhibition at 50 µM: single dose 50 μM BIT, 100 nM protease. How it is done: The DENV NS2BNS3 activity inhibition assays were conducted in a 96-well plate containing 100 μL total reaction mixture. […] The reaction, in triplicates, was initiated by the addition of 100 nM DENV2 NS2B-NS3, and the release of fluorogenic AMC was measured at 60 s intervals using a spectrofluorometer for a maximum reaction time of 30 min. A solvent (DMSO) control was run for each assay plate by measuring the activity of DENV NS2BNS3 in the absence of BITs (DMSO control). The effect of background fluorescence was measured by preparing a calibration curve, which in turn was obtained by spiking known concentrations of free AMC in the same volume of the reaction mixtures containing the buffer, enzyme and compounds, and comparing the slope of this curve with that obtained using free AMC concentrations in reaction mixtures containing the buffer, enzyme, no compound and no substrate. The percentage of inhibition was calculated using the measurement of the initial rates of reaction in the presence (vexp) , or absence (vpro) of BIT according to the following formula: Inhibition (%)= 100−(vexp/vpro×100).
For the dose–response experiments, the assays were conducted as described above in the presence of threefold serial dilutions of BITs, ranging from 0.076–500 μM concentrations in DMSO. The final concentration of DMSO in each reaction mixture was less than 5%. IC50 values were obtained by plotting the residual activity of the DENV protease vs. log of the concentration of BITs by using GraphPad Prism v.7 software (San Diego, CA USA). For the positive control, aprotinin was used in a 5 μM concentration. All experiments were conducted in triplicates.
The synthesised BITs were tested for their inhibitory activity against the DENV2 NS2B/NS3 protease assay using the previously reported 96-well plate method. […] A reduction in the cleavage of the […] (AMC) measured in terms of the reduction of fluorescence was deemed to show inhibition of the protease and is reported as a percentage inhibition compared with the solvents’ control reaction. […] Aprotinine was used as the positive control, as described previously.
A threefold serial dilution of the selected BITs, ranging from 150 μM to about 200 nM, were screened in triplicate experiments, as described above. The kinetic data were obtained and the protease’s residual activities in the presence of the tested BITs were inserted into the dose–response model rooted in the GraphPad Prism software (version 7.0).
Figure 3 Inhibition and dose–response of DENV NS2BNS3 protease against the BITs. (A) A concentration of 50 μM BITs was incubated in the presence of 100 nM recombinant DENV2 NS2BNS3 protease and 5 µM tetrapeptide-AMC substrate in a Tris buffer at pH 9.5. The time-dependent release of fluorescent AMC tag was measured for 30 min and compared with the solvent control (−). […] Aprotinine (5 µM) was used as a positive control. Each bar represents a mean value of three replicates. […] The dashed horizontal line indicates the 50% activity level.

Data set [2] concerns DENV2. The experiment in a line: DENV replication assay, viral RNA in supernatant by RT-qPCR. Type of data set: cell-based, DENV2 in Vero cells. The settings on record: 30 μM, Vero cells pre-incubated 1 h, supernatant after two days. The protocol:
Based on the manufacturer’s manual, viral RNA was isolated from 200 µL cell culture supernatants using the Roche HP Viral Nucleic Acid Kit (Roche, Mannheim, Germany). Relative viral genome copy numbers were determined using 5 µL of the eluted RNA and RT-qPCR using the LightMix® Modular Dengue kit (TIB MOLBIOL, Germany) in combination with the LightCycler RNA Process Control Kit (Roche, Mannheim, Germany). All reactions were performed in triplicates on Roche LightCycler96 or Roche LightCycler480 II qPCR machines (Roche, Mannheim, Germany). The relative RNA concentration was determined using an RNA standard curve and the respective cycler software. The quality of the RT-qPCRs was ensured by following the Minimum Information for Publication of Quantitative […] Experiments guidelines, i.e., the recursion coefficient of the relative standard curve (r^2) was >0.95, and the triplicate assays with a standard deviation of >0.5 were excluded from the analyses. The resulting genome copy numbers were expressed as genome copies per millilitre of the cell culture supernatants. The statistical significance of the reduction in viral titres was calculated using Student’s t-test by comparing the viral load of a single compound with the DMSO control.
The BITs were tested for cytotoxicity in the Vero cells before their evaluation in cell culture assays (Figure S1). […] The BITs showing weaker DENV2 NS2BNS3 protease activity in the biochemical assay were excluded in the in vitro evaluations. […] All infections were performed in triplicate. After two days, the cellular supernatants were collected and the viral RNAs were isolated and quantified using real-time quantitative polymerase chain reaction (RT-qPCR).
(§1) (A) Vero cells were infected with DENV2 and incubated in the presence of the compounds. After incubation, viral RNA was isolated and quantified using RT-qPCR. (B) Viral infectivity of the compounds 5m and 5n was determined using immunofluorescence (IF) staining.

In data set [3] the test system is DENV2. The experiment in a line: Viral infectivity by immunofluorescence staining of Vero cells infected with supernatants. The format is cell-based, DENV2 in Vero cells. How it is done:
The inhibition of viral replication was analysed using immunofluorescence staining. Vero cells were preincubated with selected BITs at 30 μM. The cells were subsequently infected with DENV-2 (multiplicity of infection (MOI) of 0.5). Cellular supernatants were collected after 2 days, centrifuged at 2000 rpm for 5 min to remove the detached cells, and titrated on Vero cells. These cells were fixed with 4% paraformaldehyde 3 days after infection. We performed immunofluorescence staining to visualise the infected cells with monoclonal anti-DENV-2 E antibodies. Bound antibodies were detected with a Cy3-conjugated donkey anti-mouse antibody (Dianova, Hamburg, Germany) (1:500). Stained infected cells were counted using a fluorescence microscope, and the viral titres were calculated. The experiment was performed in triplicates. The statistical significance of the reduction of infected cells was calculated using Student’s t-test by comparing numbers of infected cells incubated with a compound with the DMSO control.
To further analyse whether the compounds 5m and 5n suppressed the viral gene infectivity, Vero cells were pretreated with the compounds and subsequently infected with DENV2 for two days. Cellular supernatants were uses to infect the Vero cells. After two additional days, the infected cells were visualised using immunofluorescence with anti-DENV antibodies. The stained cells were counted (Figure 5).
as §1

Where [4] appears, read: Vero cells pretreated, DENV2, immunofluorescence.

Entries after “also recorded” stand apart in the source; their conditions may differ. Read-outs that look alike come from different tables or passages of the source.

Sequence of recombinant DENV2 NS2BNS3 protease (P29990 1398-1437): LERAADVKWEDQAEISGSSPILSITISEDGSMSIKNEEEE
Sequence of recombinant DENV2 NS2BNS3 protease (P29990 1476-1653): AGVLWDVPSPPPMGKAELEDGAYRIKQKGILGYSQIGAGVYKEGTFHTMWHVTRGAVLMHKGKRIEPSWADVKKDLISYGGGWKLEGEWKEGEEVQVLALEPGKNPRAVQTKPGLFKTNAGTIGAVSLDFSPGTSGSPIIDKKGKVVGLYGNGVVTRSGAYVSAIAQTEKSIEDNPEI

`CCCCc1ccc(-n2sc3ccccc3c2=O)cc1` [Compound 5g, 2-(4-Butylphenyl)benzo[d]isothiazol-3(2H)-one] had a melting point of 168 to 172 °C.

For `O=c1c2ccccc2sn1-c1ccccc1[N+](=O)[O-]` [Compound 5h, 2-(2-Nitrophenyl)benzo[d]isothiazol-3(2H)-one], the melting point lay in the range of 199 to 200 °C. In addition, in data set [1], the 50% inhibitory concentration (IC50) was determined as 41.8 ± 1.17 µM and the inhibition at 50 µM is roughly 70%.

`O=c1c2ccccc2sn1-c1ccc([N+](=O)[O-])cc1` [Compound 5i, 2-(4-Nitrophenyl)benzo[d]isothiazol-3(2H)-one] had a melting point of 126 to 129 °C.

In the case of `Cc1cc([N+](=O)[O-])ccc1-n1sc2ccccc2c1=O` [Compound 5j, 2-(2-Methyl-4-nitrophenyl)benzo[d]isothiazol-3(2H)-one], the melting point is 135 to 138 °C. Further, in data set [1], the concentration for half-maximal inhibition (IC50) came to 2.56 ± 1.03 µM and the inhibition at 50 µM was greater than 90%. Further, the “suppression of DENV replication (viral RNA, RT-qPCR)” value (shortened to “suppression of DENV replication”) with DENV2 [2] was “did not show any activity against DENV2”.

Consider `O=c1c2ccccc2sn1-c1ccc(Br)cc1` [Compound 5k, 2-(4-Bromophenyl)benzo[d]isothiazol-3(2H)], for which the melting point is 138 to 140 °C. In addition, in data set [1], the IC50 was 8.24 ± 1.16 µM and the inhibition at 50 µM came to 80%.

Consider `O=c1c2ccccc2sn1-c1ccccc1O` [Compound 5l, 2-(2-Hydroxyphenyl)benzo[d]isothiazol-3(2H)-one], for which the melting point lay in the range of 198 to 200 °C. In addition, in data set [1], the IC50 was 6.66 ± 2.17 µM and the inhibition at 50 µM was no less than 90%.

Turning to `O=c1c2ccccc2sn1-c1ccccc1Cl` [Compound 5m, 2-(2-Chlorophenyl)benzo[d]isothiazol-3(2H)-one], the IC50 in data set [1] amounted to 2.01 ± 0.98 µM. For the same compound, the inhibition at 50 µM in data set [1] was greater than 90%. Besides, the “reduction of viral infectivity” value was 1 log value with DENV2 [3] and 1.4 orders of magnitude in the data set with DENV2 [3] (setting [4]). Also, the “reduction of viral infectivity (in words)” value (“reduction … (in words)” for short) with DENV2 [3] (setting [4]) was “inhibited DENV replication and viral infectivity”; with DENV2 [3] (Vero cells pretreated, DENV2, immunofluorescence, listed as 2-(2-chlorophenyl)benzo[d]isothiazol-3(2H)-one), “could suppress DENV replication and virus infectivity”. Further, the “suppression of DENV replication” value in the data set with DENV2 [2] was “able to suppress DENV replication at a significant level; also recorded: inhibited DENV replication”; with DENV2 [2] (listed as 2-(2-chlorophenyl)benzo[d]isothiazol-3(2H)-one), “could suppress DENV replication”.

For the compound `O=c1c2ccccc2sn1-c1c(Cl)cccc1Cl` [Compound 5n, 2-(2,6-Dichlorophenyl)benzo[d]isothiazol-3(2H)-one], the melting point lay in the range of 188 to 190 °C. Also, in data set [1], the IC50 is 5.28 ± 1.89 µM and the inhibition at 50 µM was greater than 90%. The “reduction … (in words)” value in the data set with DENV2 [3] (setting [4]) is reported as “about sixfold”. For the same compound, in the data set with DENV2 [3] (Vero cells pretreated, DENV2, immunofluorescence, listed as 2-(2,6-dichlorophenyl)benzo[d]isothiazol-3(2H)-one), the “reduction … (in words)” value is “could suppress DENV replication and virus infectivity”. Further, the “suppression of DENV replication” value in the data set on DENV2 [2] is listed as “able to suppress DENV replication at a significant level”. The “suppression of DENV replication” value in the data set with DENV2 [2] (listed as 2-(2,6-dichlorophenyl)benzo[d]isothiazol-3(2H)-one) is listed as “could suppress DENV replication”.

In the case of `COc1ccc(-n2sc3ccccc3c2=O)cc1` [Compound 5o, 2-(4-Methoxyphenyl)benzo[d]isothiazol-3(2H)-one], in data set [1], the half-inhibitory concentration (IC50) came out at 26.5 ± 4.32 µM and the inhibition at 50 µM is 58%.
